# Like-named read-outs stand apart in the source and are kept apart here.
# Columns and labels:
# [1] = Rat liver microsomal stability; format: in vitro ADME; details: for half-life / microsomal CLint: rat liver microsomes 0.5 mg/mL, with NADPH; for half-life / microsomal CLint / Rat Liver Microsomal Stability no NADPH, % remain 1 h: compound 0.5 μM; for half-life: 37° C., read-out: Rat Liver Microsomal Stability t1/2; for microsomal CLint: read-out: Rat Liver Microsomal Stability CLint (uL/min/mg liver)
# Protocol: (§1) For several compounds only human liver microsomal stability was tested. […] The microsomal assays were carried out with and without the addition of NADPH at a final concentration of 1 mM. For negative control samples, NADPH reagent was not added. […] Note that compounds undergo only Phase I metabolism in liver microsomes.
# (§2) CLint=the intrinsic hepatic clearance (uL/min/mg), where CLint is equal to 0.693/(t1/2×Cmp)
# [2] = Stability in simulated intestinal fluid (SIF); format: in vitro ADME; details: SIF with pancreatin pH 6.8, 37° C.
# Protocol: (§3) The stability of exemplary compounds in simulated gastric fluid (SGF) and simulated intestinal fluid (SIF) was tested according to the following protocol.
# Dog plasma stability = format: in vitro ADME; details: dog plasma; for Dog plasma t90 / half-life: 2 μg/mL, 37° C.; for half-life: read-out: Dog plasma Half life (t1/2)
# in vitro [3] = details: for Human plasma t90 / Rat plasma t90: 2 μg/mL, 37° C.
# Protocol: The plasma stability of exemplary compounds was tested using rat, mice, dog, and human plasma, according to the following protocol. For each test compound, samples at a final concentration of 2 μg/mL were prepared in blank plasma of selected species. All samples were incubated at 37° C. on a 150-RPM orbital shaker, and an aliquot was removed at pre-determined time points (0, 15, 30, 60, and 120 minutes). Samples were precipitated with three volumes of acetonitrile containing propranolol as internal standard, and centrifuged for 10 min at 2000 g before LC/MS/MS analysis of the supernatant solutions.
# in vitro [4] = format: in vitro ADME, human; details: compound 0.5 μM; for half-life / microsomal CLint: human liver microsomes 0.5 mg/mL, with NADPH; for half-life: 37° C., read-out: Human Liver Microsomal Stability t1/2; for microsomal CLint: read-out: Human Liver Microsomal Stability CLint (uL/min/mg liver) (converted); for Human Liver Microsomal Stability no NADPH, % remain 1 h: human liver microsomes
# Protocol: as §1
# [5] = Stability in simulated gastric fluid (SGF); format: in vitro ADME; details: SGF with pepsin pH 1.2, 37° C.
# Protocol: as §3
# [6] = Dog liver microsomal stability; format: in vitro ADME; details: for microsomal CLint / half-life: dog liver microsomes 0.5 mg/mL, compound 0.5 μM; for microsomal CLint: read-out: Dog Liver Microsomal Stability CLint (uL/min/mg liver); for half-life: read-out: Dog Liver Microsomal Stability t1/2; for Dog Liver Microsomal Stability no NADPH, % remain 1 h: dog liver microsomes
# Protocol: as §1, §2
# Certain compounds were also tested in mice and dog liver microsome assays according to the protocol outlined above. […].
# [7] = Pharmacokinetic study with Compound 218 (IV 5 mg/kg, PO 25 mg/kg); format: in vivo; details: dog, plasma, fasted male beagle dogs; for AUC(0-t): read-out: Compound 218 PK AUClast; for MRT inf: read-out: Compound 218 PK MRTInf; for half-life: read-out: Compound 218 PK t1/2 (converted); for Vd: male, beagle, 5 mg/kg
# Protocol: […]; n=3) and oral (PO) administration (25 mg/kg; n=3) in fasted male beagle dogs.
# [8] = Measured solubility in buffer, LC-MS/MS; format: physicochemical; details: aqueous buffer, thermodynamic from solid
# Protocol: […] The mixture was vortexed and a magnetic stirring bar was subsequently added to the vial. The vial was placed on a magnetic stirrer with constant stirring for 16-24 hours at room temperature. The pH of the top layer solution was measured. Subsequently, 200 μL of the top layer solution was placed in a 1.5 mL microcentrifuge tube and centrifuged at 18,000 g for 10 min at room temperature. A 10 μL aliquot of supernatant was added to 990 μL of methanol:water (1/:1, v/v) and vortexed. Then, one volume of acetonitrile containing internal standard was added to one volume of the above 100-fold diluted solution and the resulting solution was vortexed and placed in 96-well plate for LC-MS/MS analysis. […] LC-MS-MS analysis was performed utilizing multiple reaction monitoring for detection of characteristic ions for each test compound, additional related analytes and internal standard.
# [9] = analyte Compound 218, IV 5 mg/kg Compound 218, mean
# [10] = analyte Compound 218, oral 25 mg/kg Compound 218, mean
# [11] = pH 7.4, 50 mM phosphate buffer, 16-24 hours, room temperature, read-out: Solubility pH 7.4
# [12] = buffer, pH 2.0, room temperature, read-out: Solubility pH 2.0
smiles,measurement,setting,value
CC(=O)[C@H]1CC[C@H]2[C@@H]3CC[C@H]4C[C@](C)(OC(=O)COC(=O)C(C)(C)N)CC[C@]4(C)[C@H]3CC[C@]12C [Compound 218],Comments: production of GNX (ganaxolone) in rat liver microsomes,[1]; rat liver microsomes,In rat no GNX produced;
same,half-life,[1],0.94 h
same,microsomal CLint,[1],26 µL/min/mg
same,"Rat Liver Microsomal Stability no NADPH, % remain 1 h",[1]; rat liver microsomes,83%
same,"SIF (% remain, 60 min)",[2],95%
same,half-life,"[2]; simulated gi fluid, 2 μg/mL, read-out: SIF t1/2",22.7 h
same,Observations: stability / GNX production in dog plasma,Dog plasma stability,No GNX produced
same,Dog plasma t90,Dog plasma stability,783 min
same,half-life,Dog plasma stability,86.6 h
same,Human plasma t90,in vitro [3],8.6 min
same,Observations: stability / GNX production in human plasma,"in vitro [3]; human, plasma",No GNX produced
same,half-life,"in vitro [3]; human, plasma",0.948 h
same,Rat plasma t90,in vitro [3],8.5 min
same,Observations: stability / GNX production in rat plasma,"in vitro [3]; rat, plasma",GNX produced in rat
same,half-life,"in vitro [3]; rat, plasma",0.938 h
same,half-life,in vitro [4],0.24 h
same,microsomal CLint,in vitro [4],95.3 µL/min/mg
same,"Human Liver Microsomal Stability no NADPH, % remain 1 h",in vitro [4],10.0%
same,"SGF (% remain, 60 min)",[5],97%
same,half-life,"[5]; simulated gi fluid, 2 μg/mL, read-out: SGF t1/2",35 h
same,microsomal CLint,[6],69 µL/min/mg
same,half-life,[6],0.335 h
same,"Dog Liver Microsomal Stability no NADPH, % remain 1 h",[6],44.4%
same,AUC(0-inf),"[7]; analyte Compound 218, IV 5 mg/kg Compound 218, mean, read-out: Compound 218 PK AUCinf",2200 ng·h/mL
same,AUC(0-t),[7]; [9],2130 ng·h/mL
same,C0,"[7]; analyte Compound 218, IV 5 mg/kg Compound 218, mean, read-out: Compound 218 PK C0",2750 ng/mL
same,clearance,"[7]; analyte Compound 218, IV 5 mg/kg Compound 218, mean, read-out: Compound 218 PK CL",37.9 mL/min/kg
same,MRT inf,[7]; [9],5.03 h
same,half-life,[7]; [9],17.7 h
same,AUC(0-inf),"[7]; analyte Compound 218, oral 25 mg/kg Compound 218, mean, read-out: Compound 218 PK AUCInf",415 ng·h/mL
same,AUC(0-t),[7]; [10],359 ng·h/mL
same,Cmax,"[7]; analyte Compound 218, oral 25 mg/kg Compound 218, mean, read-out: Compound 218 PK Cmax",89.8 ng/mL
same,MRT inf,[7]; [10],6.38 h
same,Tmax,"[7]; analyte Compound 218, oral 25 mg/kg Compound 218, mean, read-out: Compound 218 PK Tmax",1.17 h
same,half-life,[7]; [10],6.13 h
same,bioavailability,"[7]; analyte Compound 218, oral 25 mg/kg vs IV 5 mg/kg Compound 218, mean, read-out: Compound 218 PK F (%)",3.76%
same,Vd,"[7]; intravenous, Compound 218 administered, read-out: volume of distribution (Vd) (dose/Co)",1.82 L/kg
same,Vd,"[7]; iv, analyte Compound 218, IV 5 mg/kg Compound 218, mean, read-out: Compound 218 PK Vss",11.4 L/kg
same,Vd,"[7]; iv, analyte Compound 218, IV 5 mg/kg Compound 218, mean, read-out: Compound 218 PK Vz",57.5 L/kg
same,solubility,[8]; [11],152 µg/mL
same,solubility,[8]; [12],16900 µg/mL
"CC(=O)[C@H]1CC[C@H]2[C@@H]3CC[C@H]4C[C@](C)(O)CC[C@]4(C)[C@H]3CC[C@]12C [ganaxolone, Ganaxolone]",half-life,[1],0.2 h
same,microsomal CLint,[1],116 µL/min/mg
same,"Rat Liver Microsomal Stability no NADPH, % remain 1 h",[1]; rat liver microsomes,98.0%
same,"SIF (% remain, 60 min)",[2],94.6%
same,Dog plasma t90,Dog plasma stability,564 min
same,half-life,Dog plasma stability,62.4 h
same,Human plasma t90,in vitro [3],211.0 min
same,half-life,"in vitro [3]; human, plasma",23.4 h
same,Rat plasma t90,in vitro [3],94.2 min
same,half-life,"in vitro [3]; rat, plasma",10.4 h
same,half-life,in vitro [4],0.21 h
same,microsomal CLint,in vitro [4],110 µL/min/mg
same,"Human Liver Microsomal Stability no NADPH, % remain 1 h",in vitro [4],99.0%
same,"SGF (% remain, 60 min)",[5],95.6%
same,microsomal CLint,[6],27.8 µL/min/mg
same,half-life,[6],0.83 h
same,"Dog Liver Microsomal Stability no NADPH, % remain 1 h",[6],43.6%
same,solubility,[8]; [11],4 µg/mL
same,solubility,[8]; [12],2 µg/mL

# — patent US20250034201A1, “PRODRUGS OF GANAXOLONE” (priority 2022, published 2025)
